Literature values, collected in patent publication US10792293B2, “Topical nanodrug formulation” (priority 2015, dated 2020).

solubility in water: about 2.8 mg/100 ml
Structure (SMILES): CC(=O)S[C@@H]1CC2=CC(=O)CC[C@]2(C)[C@H]2CC[C@@]3(C)[C@@H](CC[C@@]34CCC(=O)O4)[C@H]12 [Spironolactone, spironolactone]
